What is called Kd is the constant that tells how readily two partners part at equilibrium.

Calls of active or inactive are those of the source. Cut-off read from the data, not from the text of the source, for most assays here: actives have a measured Kd and inactives only a lower limit.

The values below come from ChEMBL document CHEMBL3991601, “The target landscape of clinical kinase drugs” (Science, 2017).

In assay [1] the target is T1, Serine/threonine-protein kinase 3 (Homo sapiens, UniProt Q13188).
T1 sequence (Q13188 whole entry): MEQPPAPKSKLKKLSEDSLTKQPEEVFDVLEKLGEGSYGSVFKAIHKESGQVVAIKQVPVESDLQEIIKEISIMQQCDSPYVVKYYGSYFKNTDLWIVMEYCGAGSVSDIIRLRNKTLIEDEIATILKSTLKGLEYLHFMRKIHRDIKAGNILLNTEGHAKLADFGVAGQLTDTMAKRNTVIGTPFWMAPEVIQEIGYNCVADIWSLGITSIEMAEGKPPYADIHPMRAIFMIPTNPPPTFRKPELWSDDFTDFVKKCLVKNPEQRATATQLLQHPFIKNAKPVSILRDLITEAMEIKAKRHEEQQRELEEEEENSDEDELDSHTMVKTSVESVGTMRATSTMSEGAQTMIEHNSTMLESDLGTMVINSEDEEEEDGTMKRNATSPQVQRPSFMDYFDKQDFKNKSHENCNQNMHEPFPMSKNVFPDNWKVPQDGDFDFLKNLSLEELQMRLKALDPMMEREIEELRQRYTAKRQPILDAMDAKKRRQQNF

In assay [2] the target is U5 small nuclear ribonucleoprotein 200 kDa helicase (Homo sapiens, UniProt O75643).
Assay [3] has as its target Serine/threonine-protein kinase N2 (Homo sapiens, UniProt Q16513).
Assay [4] concerns the target T2, ATP-dependent RNA helicase DDX1 (Homo sapiens, UniProt Q92499).
T2 sequence (Q92499 whole entry): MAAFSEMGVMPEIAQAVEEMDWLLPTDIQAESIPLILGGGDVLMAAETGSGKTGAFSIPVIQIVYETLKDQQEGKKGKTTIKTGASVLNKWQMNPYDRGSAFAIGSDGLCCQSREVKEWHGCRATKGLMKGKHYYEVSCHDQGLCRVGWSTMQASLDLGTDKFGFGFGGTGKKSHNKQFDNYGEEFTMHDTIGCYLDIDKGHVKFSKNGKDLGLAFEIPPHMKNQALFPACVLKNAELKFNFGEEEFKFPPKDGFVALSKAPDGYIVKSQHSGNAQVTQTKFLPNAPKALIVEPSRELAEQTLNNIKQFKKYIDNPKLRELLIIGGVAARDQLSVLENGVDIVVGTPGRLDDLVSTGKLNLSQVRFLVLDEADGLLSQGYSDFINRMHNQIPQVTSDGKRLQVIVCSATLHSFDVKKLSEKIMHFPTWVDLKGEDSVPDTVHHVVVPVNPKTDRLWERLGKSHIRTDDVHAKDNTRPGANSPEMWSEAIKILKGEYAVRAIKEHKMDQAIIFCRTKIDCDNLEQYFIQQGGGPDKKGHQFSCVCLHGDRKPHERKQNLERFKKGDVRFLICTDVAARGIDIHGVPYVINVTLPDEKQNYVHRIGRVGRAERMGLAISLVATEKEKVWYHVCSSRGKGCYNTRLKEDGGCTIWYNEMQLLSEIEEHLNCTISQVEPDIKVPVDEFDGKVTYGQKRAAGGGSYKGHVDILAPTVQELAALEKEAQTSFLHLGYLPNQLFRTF

Assay [5] deals with Tyrosine-protein kinase Lyn (Homo sapiens, UniProt P07948).
Assay [6] has as its target T3, Peroxisomal acyl-coenzyme A oxidase 3 (Homo sapiens, UniProt O15254).
T3 sequence (O15254 whole entry): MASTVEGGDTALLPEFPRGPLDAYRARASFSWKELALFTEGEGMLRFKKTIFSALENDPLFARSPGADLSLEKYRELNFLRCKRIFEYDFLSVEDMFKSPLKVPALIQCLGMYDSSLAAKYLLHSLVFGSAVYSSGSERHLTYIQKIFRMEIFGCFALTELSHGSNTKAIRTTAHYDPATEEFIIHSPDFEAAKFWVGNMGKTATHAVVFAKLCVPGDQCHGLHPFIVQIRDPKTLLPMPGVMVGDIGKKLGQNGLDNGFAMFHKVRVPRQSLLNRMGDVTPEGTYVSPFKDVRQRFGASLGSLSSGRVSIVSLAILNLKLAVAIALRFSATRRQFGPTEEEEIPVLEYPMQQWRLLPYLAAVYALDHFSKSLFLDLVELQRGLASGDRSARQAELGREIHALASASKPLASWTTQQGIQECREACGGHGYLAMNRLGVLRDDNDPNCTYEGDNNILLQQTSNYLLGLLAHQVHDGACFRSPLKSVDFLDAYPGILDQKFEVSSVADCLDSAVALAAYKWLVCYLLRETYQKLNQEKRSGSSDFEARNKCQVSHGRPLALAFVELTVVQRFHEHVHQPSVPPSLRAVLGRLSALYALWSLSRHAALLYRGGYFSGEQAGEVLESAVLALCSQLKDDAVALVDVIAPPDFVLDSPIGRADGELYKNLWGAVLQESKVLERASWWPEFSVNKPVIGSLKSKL

Assay [7] has as its target Tyrosine-protein kinase Fer (Homo sapiens, UniProt P16591).
The target in assay [8] is T4, Beta-adrenergic receptor kinase 1 (Homo sapiens, UniProt P25098).
T4 sequence (P25098 whole entry): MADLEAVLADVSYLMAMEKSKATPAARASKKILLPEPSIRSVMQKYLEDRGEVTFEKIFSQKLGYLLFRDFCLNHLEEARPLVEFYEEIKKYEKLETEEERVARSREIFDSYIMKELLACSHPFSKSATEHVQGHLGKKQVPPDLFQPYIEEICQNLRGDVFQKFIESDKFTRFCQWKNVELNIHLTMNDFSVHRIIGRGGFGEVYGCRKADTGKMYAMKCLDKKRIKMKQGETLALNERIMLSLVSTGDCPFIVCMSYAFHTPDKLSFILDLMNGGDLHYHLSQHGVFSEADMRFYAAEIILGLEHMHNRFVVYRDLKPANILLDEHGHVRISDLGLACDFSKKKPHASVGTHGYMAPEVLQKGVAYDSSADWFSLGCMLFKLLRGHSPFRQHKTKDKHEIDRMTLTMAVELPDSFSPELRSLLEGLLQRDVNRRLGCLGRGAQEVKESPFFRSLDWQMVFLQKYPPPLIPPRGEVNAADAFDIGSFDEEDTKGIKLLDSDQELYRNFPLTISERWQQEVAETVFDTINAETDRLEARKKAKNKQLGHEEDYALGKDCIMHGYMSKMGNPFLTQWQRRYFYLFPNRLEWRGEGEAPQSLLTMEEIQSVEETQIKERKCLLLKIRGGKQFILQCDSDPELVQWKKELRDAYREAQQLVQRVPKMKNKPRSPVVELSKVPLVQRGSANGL

The target in assay [9] is BMP-2-inducible protein kinase (Homo sapiens, UniProt Q9NSY1).
Assay [10] deals with Tyrosine-protein kinase SYK (Homo sapiens, UniProt P43405).
Note: in the data inactive means no Kd found up to 30 µM.

Chain of Tyrosine-protein kinase Fer (P16591 whole entry): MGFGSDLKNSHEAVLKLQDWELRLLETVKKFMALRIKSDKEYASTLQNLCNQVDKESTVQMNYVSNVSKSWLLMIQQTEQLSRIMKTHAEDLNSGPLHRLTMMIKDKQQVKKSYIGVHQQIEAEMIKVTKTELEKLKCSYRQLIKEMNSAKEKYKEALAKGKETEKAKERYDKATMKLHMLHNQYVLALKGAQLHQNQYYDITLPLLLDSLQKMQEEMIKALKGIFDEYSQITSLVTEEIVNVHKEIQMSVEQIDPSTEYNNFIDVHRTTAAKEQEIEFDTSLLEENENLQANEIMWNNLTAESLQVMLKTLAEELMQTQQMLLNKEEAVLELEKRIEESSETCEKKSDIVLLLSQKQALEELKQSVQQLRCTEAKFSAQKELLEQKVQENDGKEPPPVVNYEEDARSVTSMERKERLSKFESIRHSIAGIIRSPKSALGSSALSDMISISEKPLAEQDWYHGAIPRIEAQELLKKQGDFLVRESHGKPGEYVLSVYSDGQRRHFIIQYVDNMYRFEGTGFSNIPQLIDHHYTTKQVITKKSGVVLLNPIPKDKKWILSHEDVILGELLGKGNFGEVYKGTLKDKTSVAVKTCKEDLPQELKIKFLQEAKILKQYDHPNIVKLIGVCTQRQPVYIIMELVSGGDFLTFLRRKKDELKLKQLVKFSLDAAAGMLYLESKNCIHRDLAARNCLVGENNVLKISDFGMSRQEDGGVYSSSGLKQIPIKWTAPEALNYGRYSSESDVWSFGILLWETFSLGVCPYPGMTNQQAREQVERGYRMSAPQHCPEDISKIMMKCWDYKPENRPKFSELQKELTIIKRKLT
Chain of Serine/threonine-protein kinase N2 (Q16513 whole entry): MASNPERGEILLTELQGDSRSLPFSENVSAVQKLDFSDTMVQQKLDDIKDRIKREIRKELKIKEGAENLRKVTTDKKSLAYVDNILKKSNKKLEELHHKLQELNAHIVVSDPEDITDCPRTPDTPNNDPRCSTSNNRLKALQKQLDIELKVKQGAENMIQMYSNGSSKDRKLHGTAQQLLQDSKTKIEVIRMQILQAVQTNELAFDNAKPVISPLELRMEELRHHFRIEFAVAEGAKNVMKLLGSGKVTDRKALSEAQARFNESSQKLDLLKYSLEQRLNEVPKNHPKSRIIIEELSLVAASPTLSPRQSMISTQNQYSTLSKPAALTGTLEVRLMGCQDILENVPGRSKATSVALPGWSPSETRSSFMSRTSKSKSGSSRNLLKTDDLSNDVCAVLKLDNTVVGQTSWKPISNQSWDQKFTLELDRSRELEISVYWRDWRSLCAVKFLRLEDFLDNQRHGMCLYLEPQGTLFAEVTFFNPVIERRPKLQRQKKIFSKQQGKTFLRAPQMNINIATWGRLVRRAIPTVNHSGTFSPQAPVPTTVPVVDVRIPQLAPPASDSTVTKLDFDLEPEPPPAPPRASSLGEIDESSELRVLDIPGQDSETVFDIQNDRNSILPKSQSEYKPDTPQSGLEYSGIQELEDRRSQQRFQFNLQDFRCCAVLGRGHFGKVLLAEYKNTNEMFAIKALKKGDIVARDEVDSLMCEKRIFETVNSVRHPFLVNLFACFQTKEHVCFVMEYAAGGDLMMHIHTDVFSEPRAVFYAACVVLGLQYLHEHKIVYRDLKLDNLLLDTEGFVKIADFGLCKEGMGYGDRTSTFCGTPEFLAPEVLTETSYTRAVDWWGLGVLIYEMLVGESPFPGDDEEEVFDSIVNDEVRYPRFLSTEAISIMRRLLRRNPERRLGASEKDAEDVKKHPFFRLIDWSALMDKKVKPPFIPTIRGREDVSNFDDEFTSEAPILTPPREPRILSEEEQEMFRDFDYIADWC
Chain of BMP-2-inducible protein kinase (Q9NSY1 whole entry): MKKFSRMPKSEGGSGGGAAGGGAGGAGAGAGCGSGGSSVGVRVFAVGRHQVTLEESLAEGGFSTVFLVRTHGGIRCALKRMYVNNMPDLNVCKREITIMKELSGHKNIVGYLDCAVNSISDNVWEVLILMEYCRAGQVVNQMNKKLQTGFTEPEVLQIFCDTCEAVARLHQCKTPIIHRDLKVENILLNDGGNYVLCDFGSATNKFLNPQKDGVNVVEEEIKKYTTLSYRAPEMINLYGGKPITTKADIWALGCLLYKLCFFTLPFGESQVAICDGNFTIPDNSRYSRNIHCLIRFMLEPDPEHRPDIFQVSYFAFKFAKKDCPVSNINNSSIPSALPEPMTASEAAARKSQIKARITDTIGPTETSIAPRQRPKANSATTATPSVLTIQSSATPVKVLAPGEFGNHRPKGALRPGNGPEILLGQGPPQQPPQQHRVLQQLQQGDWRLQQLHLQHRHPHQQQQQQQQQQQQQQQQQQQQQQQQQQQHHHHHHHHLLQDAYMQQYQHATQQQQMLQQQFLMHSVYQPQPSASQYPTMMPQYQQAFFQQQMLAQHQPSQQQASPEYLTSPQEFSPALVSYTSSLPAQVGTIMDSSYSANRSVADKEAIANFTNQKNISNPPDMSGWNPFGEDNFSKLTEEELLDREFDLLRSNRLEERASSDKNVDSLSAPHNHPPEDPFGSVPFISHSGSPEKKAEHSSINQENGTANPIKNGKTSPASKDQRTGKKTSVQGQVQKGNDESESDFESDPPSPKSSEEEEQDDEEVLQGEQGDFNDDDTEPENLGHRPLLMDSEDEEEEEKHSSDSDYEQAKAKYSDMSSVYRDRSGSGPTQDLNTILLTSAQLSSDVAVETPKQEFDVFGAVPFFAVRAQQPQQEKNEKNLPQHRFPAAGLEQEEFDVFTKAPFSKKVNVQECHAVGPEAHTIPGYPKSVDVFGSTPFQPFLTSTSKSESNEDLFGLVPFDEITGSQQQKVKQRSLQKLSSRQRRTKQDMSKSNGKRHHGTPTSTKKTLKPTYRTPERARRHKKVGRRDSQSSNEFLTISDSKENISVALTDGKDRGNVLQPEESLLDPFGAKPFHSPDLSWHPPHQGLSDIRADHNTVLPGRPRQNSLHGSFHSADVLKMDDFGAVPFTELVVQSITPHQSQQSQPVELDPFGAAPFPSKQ
Chain of U5 small nuclear ribonucleoprotein 200 kDa helicase (O75643 whole entry): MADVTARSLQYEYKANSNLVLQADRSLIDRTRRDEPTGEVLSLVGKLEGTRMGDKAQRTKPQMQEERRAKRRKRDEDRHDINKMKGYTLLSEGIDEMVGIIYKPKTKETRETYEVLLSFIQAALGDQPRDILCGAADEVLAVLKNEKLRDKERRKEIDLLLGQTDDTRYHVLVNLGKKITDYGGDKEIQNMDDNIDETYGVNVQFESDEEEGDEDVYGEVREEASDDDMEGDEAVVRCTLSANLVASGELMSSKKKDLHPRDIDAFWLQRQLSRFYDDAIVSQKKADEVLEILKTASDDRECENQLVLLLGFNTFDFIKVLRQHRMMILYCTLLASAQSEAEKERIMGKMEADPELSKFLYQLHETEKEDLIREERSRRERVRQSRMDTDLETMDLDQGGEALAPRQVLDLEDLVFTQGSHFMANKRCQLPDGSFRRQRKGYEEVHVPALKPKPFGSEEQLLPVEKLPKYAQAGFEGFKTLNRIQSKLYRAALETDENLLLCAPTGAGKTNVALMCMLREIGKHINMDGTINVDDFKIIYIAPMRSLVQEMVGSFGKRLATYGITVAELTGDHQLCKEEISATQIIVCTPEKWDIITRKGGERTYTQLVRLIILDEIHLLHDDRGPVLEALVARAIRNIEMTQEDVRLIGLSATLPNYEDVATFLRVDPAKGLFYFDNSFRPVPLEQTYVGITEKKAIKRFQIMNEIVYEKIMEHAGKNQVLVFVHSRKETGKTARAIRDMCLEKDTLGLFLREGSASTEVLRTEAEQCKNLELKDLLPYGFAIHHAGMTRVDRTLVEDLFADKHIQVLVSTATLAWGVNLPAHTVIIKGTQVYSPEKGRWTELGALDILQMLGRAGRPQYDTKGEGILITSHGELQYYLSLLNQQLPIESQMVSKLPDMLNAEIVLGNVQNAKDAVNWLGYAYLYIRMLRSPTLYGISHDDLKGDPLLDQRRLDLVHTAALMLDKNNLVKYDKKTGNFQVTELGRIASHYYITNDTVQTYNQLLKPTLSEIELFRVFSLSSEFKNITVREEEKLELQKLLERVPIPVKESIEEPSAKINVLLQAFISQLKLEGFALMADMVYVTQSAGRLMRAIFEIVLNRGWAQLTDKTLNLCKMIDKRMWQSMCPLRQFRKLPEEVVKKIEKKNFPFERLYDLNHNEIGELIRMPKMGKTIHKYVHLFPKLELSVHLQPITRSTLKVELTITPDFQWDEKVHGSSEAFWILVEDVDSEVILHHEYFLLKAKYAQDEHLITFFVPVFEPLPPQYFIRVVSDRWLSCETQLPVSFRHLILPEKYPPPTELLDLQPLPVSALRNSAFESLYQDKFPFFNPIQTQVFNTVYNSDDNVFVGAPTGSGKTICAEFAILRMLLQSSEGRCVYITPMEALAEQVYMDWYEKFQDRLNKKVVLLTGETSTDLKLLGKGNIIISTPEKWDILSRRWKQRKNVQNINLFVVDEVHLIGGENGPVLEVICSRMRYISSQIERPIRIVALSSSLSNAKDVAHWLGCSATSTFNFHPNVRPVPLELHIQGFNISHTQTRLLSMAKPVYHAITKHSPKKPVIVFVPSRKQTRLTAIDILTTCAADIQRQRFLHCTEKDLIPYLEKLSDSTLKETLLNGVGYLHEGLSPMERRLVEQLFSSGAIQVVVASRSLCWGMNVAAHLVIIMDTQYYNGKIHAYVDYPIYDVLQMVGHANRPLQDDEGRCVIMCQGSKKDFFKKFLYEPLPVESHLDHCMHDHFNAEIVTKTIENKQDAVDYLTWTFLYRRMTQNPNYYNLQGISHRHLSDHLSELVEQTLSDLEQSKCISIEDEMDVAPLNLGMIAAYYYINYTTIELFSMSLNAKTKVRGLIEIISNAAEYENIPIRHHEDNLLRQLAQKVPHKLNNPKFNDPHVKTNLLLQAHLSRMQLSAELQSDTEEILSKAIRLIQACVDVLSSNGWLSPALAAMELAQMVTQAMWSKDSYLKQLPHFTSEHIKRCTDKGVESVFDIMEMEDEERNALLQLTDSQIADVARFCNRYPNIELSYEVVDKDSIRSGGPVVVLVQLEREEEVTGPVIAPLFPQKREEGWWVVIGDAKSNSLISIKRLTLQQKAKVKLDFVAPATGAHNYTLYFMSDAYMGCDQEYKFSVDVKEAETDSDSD

Regarding `CC(C)c1cc(CNc2nc(Nc3cc(C4CC4)[nH]n3)cc(N3CCN(C)CC3)n2)on1` [XL-228], the Kd in [1] is 0.462 µM (active); in assay [2], > 30 µM (inactive); in assay [3], > 30 µM (inactive); in assay [4], > 30 µM (inactive); in [5], 1.33 µM (active); in [6] it was > 30 µM (inactive). The Kd in [7] was 0.105 µM (active); in assay [8], > 30 µM (inactive); in [9] it was 0.014 µM (active); in assay [10], > 30 µM (inactive).

As to `C[C@@H](N)c1ccc(C(=O)Nc2ccnc3[nH]ccc23)cc1` [Y-39983], the Kd was > 30 µM (inactive) in assay [1]; > 30 µM (inactive) in assay [2]; 0.028 µM (active) in assay [3]; > 30 µM (inactive) in assay [4]; > 30 µM (inactive) in assay [5]; > 30 µM (inactive) in assay [6]. Besides, the Kd in assay [7] was > 30 µM (inactive); in assay [8] it was > 30 µM (inactive); in assay [9], 0.179 µM (active); in assay [10], > 30 µM (inactive).

As to `CN1C/C=C/CCOc2cccc(c2)-c2ccnc(n2)Nc2cccc(c2)C1` [ZOTIRACICLIB], the Kd in assay [1] was 0.311 µM (active); in assay [2] it was > 30 µM (inactive); in assay [3] it was 0.141 µM; in assay [4] it was > 30 µM (inactive); in [5], > 30 µM (inactive); in [6] it was > 30 µM (inactive). In addition, the Kd in assay [7] was 1.69 µM; in assay [8] it was > 30 µM (inactive); in [9], > 30 µM (inactive); in assay [10], > 30 µM (inactive).
